Source: PMC6270338, “Diterpenylquinone Hybrids: Synthesis and Assessment of Gastroprotective Mechanisms of Action in Human Cells” (Molecules, 2013)

Legend:
[1] = tested on: human erythrocyte membranes; test: Inhibition of lipoperoxidation in erythrocyte membranes; format: biochemical
AGS cells [2] = test: Prostaglandin E2 (PGE2) content of AGS cells; format: cell-based, human; settings: 1 h; for PGE2: post-confluent AGS, control 52 ± 5
Method: One day after confluence, AGS cells were treated for 1 h with the compounds at 1/2 and 1/4 of the respective IC50 values. A control with medium only was included. Indomethacin (100 μM) was used as standard inhibitor of prostaglandin synthesis (Sigma-Aldrich Co., min. 99% by TLC). After incubation, PGE2 content was determined by means of a specific enzyme immunoassay kit (R & D Systems KGE004B, Minneapolis, MN, USA) and values were calculated according to the manufacturer instructions. Results are expressed as pg/well.

[3] = tested on: human erythrocyte membranes; test: Inhibition of lipoperoxidation in erythrocyte membranes; format: biochemical; settings: at 100 µg/mL
Method: The inhibition of lipid peroxidation was determined using human erythrocyte membranes. The compounds were tested at 100 µg/mL.

[4] = Cytotoxicity, neutral red uptake assay, MRC-5; format: cell-based; settings: human, MRC-5 lung fibroblasts, confluent monolayer, confluent MRC-5, 24 h, read-out: IC50 ± SD, cytotoxicity MRC-5
Method: (§1) Human lung fibroblasts MRC-5 (ATCC CCL-171) were grown in minimum essential Eagle medium (MEM) with Earles’s salts and 2 mM L-glutamine (Sigma-Aldrich Co.). Human epithelial gastric cells AGS (ATCC CRL-1739) were grown in Ham F-12 medium containing 1 mM L-glutamine. Both media were supplemented with 1.5 g/L sodium bicarbonate (Sigma-Aldrich Co.), 10% heat-inactivated fetal bovine serum (FBS), 100 IU/mL penicillin and 100 µg/mL streptomycin.Both cell lines were grown as monolayers in a humidified incubator with 5% CO2 in air at 37 °C. Culture media, antibiotics and FBS were obtained from Invitrogen Corp.
(§2) Cytotoxicity values were required as a reference to determine the working concentrations in the subsequent experiments. Briefly, confluent cultures of MRC-5 and AGS cells were treated during 24 h with medium containing the compounds at concentrations ranging from 0 up to 1,000 µM. The products were first dissolved in DMSO (1% final concentration) and then in the corresponding culture medium supplemented with 2% FBS. Untreated cells were used as controls. Cell viability was determined at the end of the incubation by means of the neutral red uptake (NRU) assay. Lansoprazole (Sigma-Aldrich Co., min. 98% by TLC) was used as reference compound.

AGS cells [5] = test: Cellular reduced glutathione (GSH) content of AGS cells; format: cell-based, human; settings: 4 h; for GSH: post-confluent AGS, control 13.6 ± 0.7
Method: Untreated cells were used as controls. […] After incubation, the GSH content was determined using a colorimetric kit (BioAssays Systems, Hayward, CA, USA). Results are expressed as nanomol of soluble reduced sulfhydryls/10^6 cells.

[6] = Cytotoxicity, neutral red uptake assay, AGS; format: cell-based; settings: human, AGS gastric epithelial cells, confluent monolayer, read-out: IC50 ± SD, cytotoxicity AGS
Method: as §1, §2

AGS cells [7] = test: Sodium taurocholate (NaT)-induced damage to AGS cells; format: cell-based, human; settings: 60 min pre-treatment, then 10 mM NaT 30 min
Method: The effect of sodium taurocholate (NaT) on cell viability was determined according to [15]. […] Then, 10 mM NaT was added to all wells for 30 min. Untreated cells were used as controls. […] After incubation, the NRU assay was carried out.

With `O.Oc1cc(O)c2c(c1)O[C@H](c1ccc(O)c(O)c1)[C@@H](O)C2` [Catechin, reference compound] the “IC50, inhibition of the lipoperoxidation” value [1] was “IC50 75.4 ± 6.0 µg/mL”.
Work on `CC(C)=CCC1=C(O)C(=O)c2ccccc2C1=O` [Compound 1, Lapachol] yielded a fold induction at 143 µM (AGS cells [2]; Homo sapiens, AGS, 143 µM, read-out: increase in PGE2 content) of 2.3, a fold induction at 286 µM (AGS cells [2]; Homo sapiens, AGS, 286 µM, read-out: increase in PGE2 content) of 2.5 and a PGE2 (AGS cells [2]; 143 µM) of 117 ± 10 pg/mL. For the same molecule, the PGE2 (AGS cells [2]; 286 µM) was 132 ± 12 pg/mL, the “% Inhibition of the lipoperoxidation” value [3] was 38% and the IC50 at 24 h [4] was over 1000 µM. For the same molecule, the GSH (AGS cells [5]; 72 µM) was 13.9 ± 0.9 nmol/10^6 cells, the GSH (AGS cells [5]; 143 µM) was 14.1 ± 0.8 nmol/10^6 cells and the IC50 at 24 h [6] was 571 ± 28 µM.
For `CC(C)CCC1=C(O)C(=O)c2ccccc2C1=O` [Compound 2, Dihydroprenyl lapachol], the “reduction in cell viability, NaT-induced damage” value (from here on “reduction in cell viability”) (AGS cells [7]; 37 µM) was 23%, the “reduction in cell viability” value (AGS cells [7]; 73 µM) was 23% and the “reduction in cell viability” value (AGS cells [7]; 146 µM) was 27%. It also gave an IC50 at 24 h [4] of 611 ± 42 µM, a GSH (AGS cells [5]; 37 µM) of 13.6 ± 0.7 nmol/10^6 cells and a GSH (AGS cells [5]; 73 µM) of 13.8 ± 0.7 nmol/10^6 cells. The “IC50, inhibition of the lipoperoxidation” value [1] was “IC50 25.4 ± 2.4 µg/mL” and the IC50 at 24 h [6] was 292 ± 12 µM.
Work on `CC(C)CCC1=C(O)C(=O)C2=C(CCCC2)C1=O` [Compound 3, Dihydroprenyl-5,6,7,8-tetrahydrolapachol] yielded an IC50 at 24 h [4] of 307 ± 22 µM, a GSH (AGS cells [5]; 11 µM) of 14.3 ± 0.7 nmol/10^6 cells and a GSH (AGS cells [5]; 22 µM) of 13.0 ± 0.5 nmol/10^6 cells. For the same molecule, the “IC50, inhibition of the lipoperoxidation” value [1] was “IC50 33.3 ± 2.3 µg/mL” and the IC50 at 24 h [6] was 87 ± 4 µM.
In the case of `C=C1CCC2[C@](C)(CCC[C@]2(C)C(=O)O)[C@H]1CC[C@@H](C)CC(=O)O` (stereo partly shown) [Compound 4, Junicedric acid], the “% Inhibition of the lipoperoxidation” value [3] is reported as 25%, the IC50 at 24 h [4] is reported as 439 ± 26 µM and the GSH (AGS cells [5]; 48 µM) is reported as “* 18.4 ± 1.1 nmol/10^6 cells”. For the same molecule, the GSH (AGS cells [5]; 96 µM) was “* 17.2 ± 1.0 nmol/10^6 cells” and the IC50 at 24 h [6] was 383 ± 23 µM.
With `CC(CCC1C(C)CCC2C(C)(C(=O)O)CCCC12C)CC(=O)O` (stereo not drawn) [Compound 6, 17β-Dihydrojunicedric acid] the “% Inhibition of the lipoperoxidation” value [3] was 30%, the IC50 at 24 h [4] was 163 ± 5 µM and the activation at 37 µM (AGS cells [5]; Homo sapiens, AGS, 37 µM, read-out: increase of GSH content compared to untreated controls) was 43%. For the same molecule, the activation at 71 µM (AGS cells [5]; Homo sapiens, AGS, 71 µM, read-out: increase of GSH content compared to untreated controls) was 60%, the GSH (AGS cells [5]; 37 µM) was “* 19.5 ± 0.9 nmol/10^6 cells” and the GSH (AGS cells [5]; 71 µM) was “** 21.7 ± 1.3 nmol/10^6 cells”. The IC50 at 24 h [6] was 283 ± 17 µM.
With `C=C1CCC2[C@](C)(CCC[C@]2(C)C(=O)O)[C@H]1CC[C@@H](C)CC(=O)OC1=C(CC=C(C)C)C(=O)c2ccccc2C1=O` (stereo partly shown) [Compound 7, Lapachoyl junicedrate] the “% Inhibition of the lipoperoxidation” value [3] was 10%, the IC50 at 24 h [4] was 221 ± 13 µM and the activation at 18 µM (AGS cells [5]; Homo sapiens, AGS, 18 µM, read-out: increase of GSH content compared to untreated controls) was 18%. The activation at 36 µM (AGS cells [5]; Homo sapiens, AGS, 36 µM, read-out: increase of GSH content compared to untreated controls) was 23%, the GSH (AGS cells [5]; 18 µM) was 16.1 ± 0.9 nmol/10^6 cells and the GSH (AGS cells [5]; 36 µM) was “* 16.7 ± 0.7 nmol/10^6 cells”. It also gave an IC50 at 24 h [6] of 143 ± 6 µM.
For `C=C1CCC2[C@](C)(CCC[C@]2(C)C(=O)OC)[C@H]1CC[C@@H](C)CC(=O)OC1=C(CCC(C)C)C(=O)C2=C(CCCC2)C1=O` (stereo partly shown) [Compound 12, Dihydroprenyl-5,6,7,8-tetrahydrolapachoyl junicedrate methyl ester], the “% Inhibition of the lipoperoxidation” value [3] was 37%, the IC50 at 24 h [4] was 667 ± 40 µM and the GSH (AGS cells [5]; 125 µM) was 13.7 ± 1.0 nmol/10^6 cells. It also gave a GSH (AGS cells [5]; 250 µM) of 13.9 ± 0.8 nmol/10^6 cells and an IC50 at 24 h [6] of over 1000 µM.
In the case of `COC(=O)[C@@]1(C)CCC[C@@]2(C)C1CC[C@H](C)[C@@H]2CC[C@@H](C)CC(=O)OC1=C(CC=C(C)C)C(=O)c2ccccc2C1=O` (stereo partly drawn) [Compound 14, Lapachoyl 17β-dihydrojunicedrate methyl ester], the IC50 at 24 h [4] is reported as 727 ± 48 µM, the GSH (AGS cells [5]; 115 µM) is reported as 14.4 ± 0.5 nmol/10^6 cells and the GSH (AGS cells [5]; 229 µM) is reported as 12.7 ± 0.4 nmol/10^6 cells. For the same molecule, the “IC50, inhibition of the lipoperoxidation” value [1] was “IC50 19.7 ± 1.4 µg/mL” and the IC50 at 24 h [6] was 916 ± 54 µM.
`CC(C)CCC1=C(OC(=O)C[C@H](C)CC[C@H]2[C@@H](C)CCC3[C@]2(C)CCC[C@]3(C)C(=O)O)C(=O)c2ccccc2C1=O` (stereo partly drawn) [Compound 15, Dihydroprenyl lapachol 17β-dihydrojunicedrate] gave a fold induction at 250 µM (AGS cells [2]; Homo sapiens, AGS, 250 µM, read-out: increase in PGE2 content) of 5.4, a fold induction at 500 µM (AGS cells [2]; Homo sapiens, AGS, 500 µM, read-out: increase in PGE2 content) of 7.2 and a PGE2 (AGS cells [2]; 250 µM) of 279 ± 20 pg/mL. For the same molecule, the PGE2 (AGS cells [2]; 500 µM) was 372 ± 25 pg/mL, the “reduction in cell viability” value (AGS cells [7]; 125 µM) was 27% and the “reduction in cell viability” value (AGS cells [7]; 250 µM) was 27%. For the same molecule, the “reduction in cell viability” value (AGS cells [7]; 500 µM) was 21%, the IC50 at 24 h [4] was over 1000 µM and the activation at 125 µM (AGS cells [5]; Homo sapiens, AGS, 125 µM, read-out: increase of GSH content compared to untreated controls) was 31%. For the same molecule, the activation at 250 µM (AGS cells [5]; Homo sapiens, AGS, 250 µM, read-out: increase of GSH content compared to untreated controls) was 35%, the GSH (AGS cells [5]; 125 µM) was “* 17.8 ± 0.9 nmol/10^6 cells” and the GSH (AGS cells [5]; 250 µM) was “* 18.4 ± 1.2 nmol/10^6 cells”. For the same molecule, the “IC50, inhibition of the lipoperoxidation” value [1] was “IC50 25.3 ± 4.1 µg/mL” and the IC50 at 24 h [6] was over 1000 µM.
With `CC(C)=CCC1=C(OC(=O)C[C@H](C)CC[C@H]2[C@@H](C)CCC3[C@]2(C)CCC[C@]3(C)C(=O)O)C(=O)C2=C(CCCC2)C1=O` (stereo partly drawn) [Compound 17, Dihydroprenyl-5,6,7,8-tetrahydrolapachoyl 17β-dihydrojunicedrate] the “% Inhibition of the lipoperoxidation” value [3] was 48%, the IC50 at 24 h [4] was 44 ± 4 µM and the activation at 7.5 µM (AGS cells [5]; Homo sapiens, AGS, 7.5 µM, read-out: increase of GSH content compared to untreated controls) was 89%. For the same molecule, the activation at 15 µM (AGS cells [5]; Homo sapiens, AGS, 15 µM, read-out: increase of GSH content compared to untreated controls) was 51%, the GSH (AGS cells [5]; 7.5 µM) was “** 25.8 ± 1.6 nmol/10^6 cells” and the GSH (AGS cells [5]; 15 µM) was “** 20.5 ± 1.0 nmol/10^6 cells”. For the same molecule, the IC50 at 24 h [6] was 60 ± 5 µM.
In the case of `COc1ccc2c(c1)c(CC(=O)O)c(C)n2C(=O)c1ccc(Cl)cc1` [Indomethacin, reference compound], the PGE2 (AGS cells [2]; 100 µM) is reported as “Not detected”.
For `Cc1c(OCC(F)(F)F)ccnc1C[S+]([O-])c1nc2ccccc2[nH]1` (stereo not shown) [Lansoprazole, reference compound], the IC50 at 24 h [4] was 316 ± 11 µM and the IC50 at 24 h [6] was 168 ± 8 µM.
For `CC(=O)N[C@@H](CS)C(=O)O` [NAC, N-acetyl-L-cysteine, reference compound], the activation at 750 µM (AGS cells [5]; Homo sapiens, AGS, 750 µM, read-out: increase of GSH content compared to untreated controls) was 30% and the GSH (AGS cells [5]; 750 µM) was “* 17.7 ± 1.4 nmol/10^6 cells”.
For Sucralfate [reference compound], the “reduction in cell viability” value (AGS cells [7]; 4 mg/mL (580 µM)) was 35%.
